Where two headings read alike, the source gives them in different places.

Experiment [1] concerns the target ERK1 (Homo sapiens, UniProt P27361). Briefly: Kinase selectivity assay (CEREP, HTRF). It is filed as biochemical. The settings on record: read-out: % Inhibition at 10 μM Concentration. The method, then:
(§1) The inhibitory activity of selected compounds was evaluated against a panel of 45 different kinase enzymes by CEREP, France. The assays were performed using standard HTRF assay methods as documented by CEREP against the human orthologues of Abl kinase, Akt1/PKBa, AMPKa, BMX kinase (Etk), Brk, CaMK2a, CaMK4, CDC2/CDK1 (cycB), CHK1, CHK2, c-Met kinase, CSK, EphB4 kinase, ERK1, ERK2 (P42mapk), FGFR2 kinase, FGFR4 kinase, FLT-1 kinase (VEGFR1), FLT-3 kinase, Fyn kinase, IGF1R kinase, IRK (InsR), JNK 2, KDR kinase (VEGFR2), Lck kinase, Lyn kinase, MAPKAPK2, MEK1/MAP2K1, p38a kinase, p38d kinase, p38g kinase, PDGFRb kinase, PDK1, PKA, PKCa, PKCb1, PKCb2, PKCg, Ret kinase, ROCK2, RSK2, Src kinase, Syk, and TRKA. The % Inhibition was determined by the formula; % Inhibition=100×(1−(experimental value−background value)/(high activity control−background value)).
(In TR-FRET formats the signal depends on donor and acceptor labels being close together.)

The target of experiment [2] is PKCgamma (Homo sapiens, UniProt P05129). Briefly: Kinase selectivity assay (CEREP, HTRF). Type of experiment: biochemical. The settings on record: read-out: % Inhibition at 10 μM Concentration. The method, then:
as §1

Experiment [3] concerns the target Akt1/PKBalpha (Homo sapiens, UniProt P31749). Briefly: Kinase selectivity assay (CEREP, HTRF). It is filed as biochemical. Conditions: read-out: % Inhibition at 10 μM Concentration. Here is the method: as §1
The target in experiment [4] is Lyn (Homo sapiens, UniProt P07948). Briefly: Kinase selectivity assay (CEREP, HTRF). Conditions: read-out: % Inhibition at 10 μM Concentration. Type of experiment: biochemical. Here is the method:
as §1

Experiment [5] addresses Brk (Homo sapiens, UniProt Q13882). Briefly: Kinase selectivity assay (CEREP, HTRF). It is filed as biochemical. Conditions: read-out: % Inhibition at 10 μM Concentration. Here is the method:
as §1

Experiment [6] deals with BMX (Etk) (Homo sapiens, UniProt P51813). Briefly: Kinase selectivity assay (CEREP, HTRF). Type of experiment: biochemical. Conditions: read-out: % Inhibition at 10 μM Concentration. The method, then: as §1
BMX (Etk), sequence (P51813 whole entry): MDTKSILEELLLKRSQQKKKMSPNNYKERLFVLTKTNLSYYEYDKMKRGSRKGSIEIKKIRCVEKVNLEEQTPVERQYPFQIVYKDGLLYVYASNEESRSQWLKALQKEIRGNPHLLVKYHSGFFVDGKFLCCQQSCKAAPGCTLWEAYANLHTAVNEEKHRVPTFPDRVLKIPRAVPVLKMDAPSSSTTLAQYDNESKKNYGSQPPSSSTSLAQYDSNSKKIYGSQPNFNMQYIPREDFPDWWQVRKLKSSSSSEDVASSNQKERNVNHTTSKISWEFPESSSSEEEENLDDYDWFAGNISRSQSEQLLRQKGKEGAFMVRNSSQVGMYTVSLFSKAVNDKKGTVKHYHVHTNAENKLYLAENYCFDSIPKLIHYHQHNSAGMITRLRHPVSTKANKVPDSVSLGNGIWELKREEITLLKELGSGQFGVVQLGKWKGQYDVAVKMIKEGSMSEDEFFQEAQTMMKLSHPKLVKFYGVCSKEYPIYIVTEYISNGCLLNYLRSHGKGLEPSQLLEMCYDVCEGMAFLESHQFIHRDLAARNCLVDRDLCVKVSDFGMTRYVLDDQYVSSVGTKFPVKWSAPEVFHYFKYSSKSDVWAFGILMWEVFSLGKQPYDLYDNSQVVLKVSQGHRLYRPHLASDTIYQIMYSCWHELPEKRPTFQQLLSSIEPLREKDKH
The target of experiment [7] is PKCbeta 2 (Homo sapiens, UniProt P05771). Briefly: Kinase selectivity assay (CEREP, HTRF). The settings on record: read-out: % Inhibition at 10 μM Concentration. Type of experiment: biochemical. Here is the method: as §1
Experiment [8] has as its target IRK (InsR) (Homo sapiens, UniProt P06213). Briefly: Kinase selectivity assay (CEREP, HTRF). It is filed as biochemical. Conditions: read-out: % Inhibition at 10 μM Concentration. The method, then: as §1
Experiment [9] concerns the target MEK1/MAP2K1 (Homo sapiens, UniProt Q02750). Briefly: Kinase selectivity assay (CEREP, HTRF). It is filed as biochemical. Conditions: read-out: % Inhibition at 10 μM Concentration. The method, then: as §1
For experiment [10], the target named is MAPKAPK2 (Homo sapiens, UniProt P49137). Briefly: Kinase selectivity assay (CEREP, HTRF). Type of experiment: biochemical. The settings on record: read-out: % Inhibition at 10 μM Concentration. The method, then: as §1
In experiment [11] the target is PKCalpha (Homo sapiens, UniProt P17252). Briefly: Kinase selectivity assay (CEREP, HTRF). Type of experiment: biochemical. Conditions: read-out: % Inhibition at 10 μM Concentration. Here is the method:
as §1

For experiment [12], the target named is CHK1 (Homo sapiens, UniProt O14757). Briefly: Kinase selectivity assay (CEREP, HTRF). It is filed as biochemical. The settings on record: read-out: % Inhibition at 10 μM Concentration. The method, then: as §1
Experiment [13] concerns the target CSK (Homo sapiens, UniProt P41240). Briefly: Kinase selectivity assay (CEREP, HTRF). It is filed as biochemical. Conditions: read-out: % Inhibition at 10 μM Concentration. The method, then:
as §1

Experiment [14] concerns the target TRKA (Homo sapiens, UniProt P04629). Briefly: Kinase selectivity assay (CEREP, HTRF). It is filed as biochemical. The settings on record: read-out: % Inhibition at 10 μM Concentration. Here is the method:
as §1

The subject of experiment [15] is SW620 colon cancer cell line. Briefly: Cell growth inhibition, Sulforhodamine B (SRB) assay. Type of experiment: cell-based. The settings on record: Homo sapiens, SW-620, 120 h, read-out: Cell Line GI50 Range SW620. Here is the method:
(§2) Aliquots (20 μl) from each concentration were overlaid to 80 μl of the pre-seeded cells in the 96-plates to make final concentrations of 10 nM to 50 μM. The cells were cultured for 5 days before the Sulforhodamine B (SRB) assay was performed to determine the compound's cell growth inhibition activity.
(§3) Sulforhodamine B (Sigma, Canada) is a water-soluble dye that binds to the basic amino acids of cellular proteins. Thus, colorimetric measurement of the bound dye provides an estimate of the total protein mass that is related to the cell number. The cells are fixed in situ by gently aspirating off the culture media and adding 50 μl ice cold 10% Trichloroacetic Acid (TCA) per well and incubated at 4° C. for 30-60 min. The plates are washed with water five times and allowed to air dry for 5 min. Addition of 50 μl 0.4% (w/v) SRB solution in 1% (v/v) acetic acid to each well and incubatation for […] at RT completes the staining reaction. Following staining, plates are washed four times with 1% acetic acid to remove unbound dye and then allowed to air dry for 5 min. […] Absorbance is read at 570 nm.
(§4) The percentage (%) of relative growth inhibition was calculated by comparing to DMSO-treated only cells (100%). GI50's were determined for compounds with cytotoxic activity. The GI50 was calculated using GraphPad PRISM software (GraphPad Software, Inc., USA).
In general terms: In SRB staining, fixed cells bind dye roughly in proportion to their protein.

In experiment [16] the test system is human mammary epithelial primary cells (HMEC). The description is as above. It is filed as cell-based. The settings on record: 120 h, read-out: Cell Line GI50 Range HMEC. The method, then:
as §2, §3, §4

In experiment [17] the test system is MCF-7 luminal breast cancer cell line. The description is as above. It is filed as cell-based. The settings on record: Homo sapiens, MCF7, 120 h, read-out: Cell Line GI50 Range MCF-7. The method, then:
as §2, §3, §4

Experiment [18] relates to A549 lung cancer cell line. The description is as above. Type of experiment: cell-based. Conditions: Homo sapiens, A549, 120 h, read-out: Cell Line GI50 Range A549. The method, then: as §2, §3, §4
For experiment [19], the system named is MDA-MB-468 basal breast cancer cell line. The description is as above. Type of experiment: cell-based. Conditions: Homo sapiens, MDA-MB-468, 120 h, read-out: Cell Line GI50 Range MDA-MB-468.
Experimental: Breast cancer and normal cells were seeded at various concentrations, ranging from 1500 to 4000 per 80 μl according to cell growth rate, into 96-well plates 24 hours before compound overlay. Each 10 mM stock solution in 100% DMSO of the compounds was diluted with Opti-MEM I Reduced-Serum Medium (Invitrogen, Canada) to make concentration ranges from 50 nM to 250 μM. 20 μl from each concentration was added to the cells to make the final concentration range from 10 nM to 50 μM. The cells were cultured at 37° C. for 5 days before the Sulforhodamine B (SRB) assay was performed to assess cell survival. SRB is a water-soluble dye that binds to the basic amino acids of cellular proteins. Thus, colorimetric measurement of the bound dye provides an estimate of the total protein mass and is related to cell number. The cells were fixed in situ by gently aspirating off the culture media and adding 50 μl ice-cold 10% Tri-chloroacetic Acid (TCA) per well and incubation at 4° C. for 30-60 min. The plates were washed with tap water five times and allowed to air dry for 5 min. 50 μl of 0.4% (w/v) SRB solution in 1% (v/v) acetic acid was added per well and incubated for 30 mM at RT for staining. Following staining, plates were washed four times with 1% acetic acid to remove any unbound dye and then allowed to air dry for 5 min. The stain was solubilized with 100 μl of 10 mM Tris pH 10.5 per well. Absorbances were read at 570 nm. The cell survival percentage at each compound concentration was calculated over the cell DMSO control, which was growing in the presence of 0.1% DMSO (0.5% in the case of 50 μM compounds). Cell viability GI50 values were calculated using GraphPad PRISM software (GraphPad Software, Inc.).
Experiment [20] concerns the target Syk (Homo sapiens, UniProt P43405). Briefly: Kinase selectivity assay (CEREP, HTRF). It is filed as biochemical. Conditions: read-out: % Inhibition at 10 μM Concentration. Here is the method:
as §1

Lyn, sequence (P07948 whole entry): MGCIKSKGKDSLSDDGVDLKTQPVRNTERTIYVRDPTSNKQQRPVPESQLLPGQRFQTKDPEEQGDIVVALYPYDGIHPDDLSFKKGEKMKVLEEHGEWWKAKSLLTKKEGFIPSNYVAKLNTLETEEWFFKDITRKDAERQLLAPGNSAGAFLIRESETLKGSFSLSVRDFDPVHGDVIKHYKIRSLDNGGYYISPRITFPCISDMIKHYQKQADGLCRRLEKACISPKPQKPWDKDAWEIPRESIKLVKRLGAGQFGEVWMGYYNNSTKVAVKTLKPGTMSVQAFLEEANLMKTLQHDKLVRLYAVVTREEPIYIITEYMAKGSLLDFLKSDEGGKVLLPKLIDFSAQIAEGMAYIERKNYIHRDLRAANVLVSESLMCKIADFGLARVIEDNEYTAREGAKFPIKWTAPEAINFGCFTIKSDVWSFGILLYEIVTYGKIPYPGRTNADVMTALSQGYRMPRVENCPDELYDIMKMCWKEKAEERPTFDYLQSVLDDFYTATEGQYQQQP
ERK1, sequence (P27361 whole entry): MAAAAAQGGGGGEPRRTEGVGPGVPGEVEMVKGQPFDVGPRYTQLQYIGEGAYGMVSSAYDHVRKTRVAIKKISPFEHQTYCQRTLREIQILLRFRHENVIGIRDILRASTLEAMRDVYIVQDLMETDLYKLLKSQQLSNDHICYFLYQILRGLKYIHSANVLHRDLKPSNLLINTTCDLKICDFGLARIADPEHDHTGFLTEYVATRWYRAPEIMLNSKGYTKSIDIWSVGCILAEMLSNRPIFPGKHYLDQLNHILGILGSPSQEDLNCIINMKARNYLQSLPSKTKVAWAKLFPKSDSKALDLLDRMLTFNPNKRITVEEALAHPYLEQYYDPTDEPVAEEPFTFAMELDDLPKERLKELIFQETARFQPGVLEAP
Akt1/PKBalpha, sequence (P31749 whole entry): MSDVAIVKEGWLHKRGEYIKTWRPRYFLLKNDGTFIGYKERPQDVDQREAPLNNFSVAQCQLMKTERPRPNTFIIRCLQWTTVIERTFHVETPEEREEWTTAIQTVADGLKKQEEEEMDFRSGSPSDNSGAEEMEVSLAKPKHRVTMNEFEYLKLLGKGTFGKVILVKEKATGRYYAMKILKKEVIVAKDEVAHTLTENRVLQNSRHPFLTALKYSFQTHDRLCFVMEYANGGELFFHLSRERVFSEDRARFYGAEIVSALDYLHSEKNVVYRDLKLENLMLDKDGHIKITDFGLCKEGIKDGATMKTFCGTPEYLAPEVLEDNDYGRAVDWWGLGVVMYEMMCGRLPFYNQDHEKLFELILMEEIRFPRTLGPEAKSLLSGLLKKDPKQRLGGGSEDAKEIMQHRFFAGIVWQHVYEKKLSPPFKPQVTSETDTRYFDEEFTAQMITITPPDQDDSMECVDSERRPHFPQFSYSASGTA
IRK (InsR), sequence (P06213 28-1382): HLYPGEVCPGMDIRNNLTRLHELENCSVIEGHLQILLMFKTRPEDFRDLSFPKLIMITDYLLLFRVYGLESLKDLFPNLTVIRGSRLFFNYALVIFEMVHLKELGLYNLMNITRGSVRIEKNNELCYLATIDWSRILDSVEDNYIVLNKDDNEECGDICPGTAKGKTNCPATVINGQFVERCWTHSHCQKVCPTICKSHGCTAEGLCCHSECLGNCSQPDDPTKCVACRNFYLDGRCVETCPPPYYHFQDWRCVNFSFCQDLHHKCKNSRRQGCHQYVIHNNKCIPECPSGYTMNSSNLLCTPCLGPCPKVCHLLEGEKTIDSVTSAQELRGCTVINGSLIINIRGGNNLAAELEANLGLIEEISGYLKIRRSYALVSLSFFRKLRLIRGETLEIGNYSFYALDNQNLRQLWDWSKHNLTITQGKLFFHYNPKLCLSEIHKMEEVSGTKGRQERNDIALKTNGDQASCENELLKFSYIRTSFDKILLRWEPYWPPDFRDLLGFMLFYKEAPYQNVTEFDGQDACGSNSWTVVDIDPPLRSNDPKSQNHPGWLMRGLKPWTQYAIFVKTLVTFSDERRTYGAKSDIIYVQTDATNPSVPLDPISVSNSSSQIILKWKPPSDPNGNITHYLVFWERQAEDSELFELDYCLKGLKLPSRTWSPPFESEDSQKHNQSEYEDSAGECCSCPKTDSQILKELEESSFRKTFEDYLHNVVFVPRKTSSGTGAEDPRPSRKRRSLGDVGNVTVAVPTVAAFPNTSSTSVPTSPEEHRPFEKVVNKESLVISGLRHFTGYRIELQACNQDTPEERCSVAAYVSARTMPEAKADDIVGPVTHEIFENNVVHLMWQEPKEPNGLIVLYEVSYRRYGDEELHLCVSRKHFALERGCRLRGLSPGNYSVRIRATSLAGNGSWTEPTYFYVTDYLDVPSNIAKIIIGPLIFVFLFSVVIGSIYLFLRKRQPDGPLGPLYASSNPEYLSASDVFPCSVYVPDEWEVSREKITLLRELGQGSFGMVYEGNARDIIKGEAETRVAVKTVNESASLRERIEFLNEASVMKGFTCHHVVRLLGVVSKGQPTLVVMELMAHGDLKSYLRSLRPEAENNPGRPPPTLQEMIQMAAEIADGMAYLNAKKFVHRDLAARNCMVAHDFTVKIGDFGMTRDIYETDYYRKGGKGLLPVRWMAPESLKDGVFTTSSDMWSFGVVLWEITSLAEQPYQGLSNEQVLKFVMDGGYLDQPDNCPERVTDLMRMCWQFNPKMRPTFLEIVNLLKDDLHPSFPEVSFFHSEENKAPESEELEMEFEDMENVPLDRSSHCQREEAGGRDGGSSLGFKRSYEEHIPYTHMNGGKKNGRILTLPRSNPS
CSK, sequence (P41240 whole entry): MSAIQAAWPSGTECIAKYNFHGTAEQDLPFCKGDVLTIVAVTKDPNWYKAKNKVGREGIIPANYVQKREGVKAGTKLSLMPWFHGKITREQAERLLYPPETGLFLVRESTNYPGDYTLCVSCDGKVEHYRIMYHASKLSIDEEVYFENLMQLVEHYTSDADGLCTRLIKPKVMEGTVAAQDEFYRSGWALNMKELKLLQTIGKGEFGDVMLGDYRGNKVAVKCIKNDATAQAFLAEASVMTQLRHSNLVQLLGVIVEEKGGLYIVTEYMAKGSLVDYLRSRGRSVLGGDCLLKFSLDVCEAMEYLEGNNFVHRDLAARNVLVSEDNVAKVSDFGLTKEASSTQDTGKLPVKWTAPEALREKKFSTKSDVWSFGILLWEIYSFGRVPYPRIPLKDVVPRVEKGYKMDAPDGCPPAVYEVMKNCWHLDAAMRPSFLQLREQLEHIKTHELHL
Brk, sequence (Q13882 whole entry): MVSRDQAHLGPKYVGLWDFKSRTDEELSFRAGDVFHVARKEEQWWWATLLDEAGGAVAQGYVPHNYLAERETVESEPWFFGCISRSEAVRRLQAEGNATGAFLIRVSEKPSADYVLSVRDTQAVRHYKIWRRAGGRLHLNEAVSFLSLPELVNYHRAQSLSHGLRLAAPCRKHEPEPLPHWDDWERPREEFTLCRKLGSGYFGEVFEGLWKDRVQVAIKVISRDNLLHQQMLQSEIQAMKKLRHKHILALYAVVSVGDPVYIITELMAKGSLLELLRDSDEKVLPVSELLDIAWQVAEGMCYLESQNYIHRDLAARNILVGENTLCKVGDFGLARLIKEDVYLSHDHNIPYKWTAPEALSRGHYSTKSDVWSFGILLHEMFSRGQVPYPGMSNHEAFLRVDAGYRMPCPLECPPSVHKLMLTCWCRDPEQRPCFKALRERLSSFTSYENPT

Regarding `CN(C)Cc1ccc(/C=C/c2n[nH]c3cc([C@H]4C[C@@]45C(=O)Nc4ccccc45)ccc23)cc1` (racemic) [Compound 35], the inhibition at 10 µM was 1% in experiment [1]; 10% in [2]; -4% in experiment [3]; 86% in experiment [4]; 53% in [5]; 39% in [6]. The inhibition at 10 µM is 26% in experiment [7]; 5% in [8]; -2% in [9]; 2% in [10]; 6% in [11]; 43% in experiment [12]. The values for the inhibition at 10 µM in [13] and in [14] were 75% and 101%, respectively. Moreover, the GI50 – broadly, the concentration that inhibits growth by half – in experiment [15] was under 5 µM; in experiment [16], 5 to 20 µM; in [17], under 5 µM; in experiment [18], under 5 µM; in experiment [19], under 5 µM.

Consider `COc1ccc2c(c1)/C(=C\c1ccc3c(/C=C/c4ccc(N5CCN(C)CC5)nc4)n[nH]c3c1)C(=O)N2` [Compound 3], for which the inhibition at 10 µM in [1] is 2%; in experiment [2], 3%; in experiment [3] it was -5%; in experiment [4], -2%; in experiment [5] it was -2%; in experiment [20] (Syk, 10 μM), -1%. In addition, the inhibition at 10 µM in experiment [6] was 0%; in experiment [7], 4%; in [8], 2%; in experiment [9] it was -3%; in [10], 6%; in [11], 7%. In addition, the inhibition at 10 µM was 0% in [12], 6% in experiment [13] and 43% in experiment [14].

For the compound `COc1ccc2c(c1)[C@@]1(C[C@@H]1c1ccc3c(-c4ccc(N5CCN(C)CC5)nc4)n[nH]c3c1)C(=O)N2` (racemic) [Compound 2], the inhibition at 10 µM in experiment [20] was -1%. Besides, the GI50 in [15] was under 5 µM; in experiment [16], 20 to 50 µM; in [17], under 5 µM; in experiment [18] it was under 5 µM; in experiment [19] it was under 5 µM.

These data come from patent US8933070B2, “Methods of targeting PTEN mutant diseases and compositions therefor” (University Health Network, priority 2010, dated 2015).
